The results in this text go back to patent US7192760B2 (priority 2000, dated 2007).

Assay [1] deals with Brevibacterium lactofermentum CJJA22. Briefly: α-Aminobutyric acid resistance: growth on minimal medium containing α-aminobutyric acid. To be noted: strain printed CJJA21; α-aminobutyric acid 20 g/l; cultivation at 30° C. for 6 days. Type of assay: cell-based.
Assay [2] concerns Brevibacterium lactofermentum KFCC-10680. The description is as above. Type of assay: cell-based. To be noted: strain KFCC-10680, cultivation at 30° C. for 6 days.
Assay [3] shares this test system. Particulars: strain KFCC-10680, cultivation at 30° C. for 6 days.
Assay [4] relates to Brevibacterium lactofermentum CJJA21. Particulars: strain CJJA21; sodium azide 800 mg/l; cultivation at 30° C. for 6 days.

Like-named read-outs stand apart in the source and are kept apart here.

On to `CCC(N)C(=O)O` (racemic) [α-aminobutyric acid, D,L-α-amino-n-butyric acid], for which the growth result in assay [1] is recorded as “−”; in assay [2] (α-aminobutyric acid 5 g/l), “+”; in assay [2] (α-aminobutyric acid 10 g/l) it was “−”; in assay [2] (α-aminobutyric acid 15 g/l), “−”; in assay [2] (α-aminobutyric acid 20 g/l), “−”.
With `[N-]=[N+]=[N-]` [Sodium azide, sodium azide], the growth entry in assay [3] (sodium azide 100 mg/l) is “+”; in assay [3] (sodium azide 200 mg/l), “+”; in assay [3] (sodium azide 300 mg/l) it was “−”; in assay [3] (sodium azide 500 mg/l), “−”; in assay [3] (sodium azide 800 mg/l), “−”; in assay [4] it was “−”.
